Results on 24 molecules are retold here after patent US12344603B2 (Genentech, Inc., priority 2020, dated 2025).

Structures can show the parent of a compound that is named as a salt.

In the assay the target is IRE1α (Homo sapiens (Human), UniProt O75460, D688N). In words: IRE1α TR-FRET competition binding assay (IRE1α HTRF). As to conditions: TR-FRET competition binding to kinase domain of IRE1α. In outline: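 Competition of compounds against an Alexa fluor 647 ATP-site probe (2 nM final) for the His-tagged kinase domain (0.25 nM final), detected via 2 nM Eu anti-His antibody by TR-FRET, 665 and 615 nm emission. Protein–antibody premix 1 h, 4° C; reaction 1 h, room temperature, pH 7.5 HEPES buffer.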
IRE1α, sequence (O75460 547-977 D688N): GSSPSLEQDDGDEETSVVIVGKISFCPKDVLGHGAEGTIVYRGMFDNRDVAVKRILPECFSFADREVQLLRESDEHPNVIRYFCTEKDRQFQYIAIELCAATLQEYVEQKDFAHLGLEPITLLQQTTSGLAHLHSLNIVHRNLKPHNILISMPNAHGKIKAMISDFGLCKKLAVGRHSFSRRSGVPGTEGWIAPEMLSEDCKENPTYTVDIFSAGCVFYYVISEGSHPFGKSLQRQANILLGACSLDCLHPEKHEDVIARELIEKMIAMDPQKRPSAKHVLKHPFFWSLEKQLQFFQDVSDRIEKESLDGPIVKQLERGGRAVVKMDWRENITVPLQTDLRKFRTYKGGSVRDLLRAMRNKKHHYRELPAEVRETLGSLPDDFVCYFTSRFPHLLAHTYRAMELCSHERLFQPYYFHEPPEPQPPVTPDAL
In general terms: Time-resolved FRET reads energy transfer from a long-lived donor to a nearby acceptor.
The IC50 is the concentration needed to halve the response being measured. A high value points to a need for much substance. For `CC1CC1C(=O)Nc1c(F)cc(-c2cc3cnc(N[C@H]4CC[C@H](N(C)C)CC4)nc3n(C(C)C)c2=O)c(F)c1F` (stereo partly drawn) [Compound 58, (1S,2R)—N-(4-(2-(((1r,4r)-4-(dimethylamino)cyclohexyl)amino)-8-isopropyl-7-oxo-7,8-dihydropyrido[2,3-d]pyrimidin-6-yl)-2,3,6-trifluorophenyl)-2-methylcyclopropane-1-carboxamide], the IC50 turned out to be 5.7 nM.

Molecule `CC(C)CC(=O)Nc1c(F)cc(-c2cc3cnc(N[C@H]4CC[C@H](N(C)C)CC4)nc3n(C(C)C)c2=O)c(F)c1F` [Compound 59, N-(4-(2-(((1r,4r)-4-(Dimethylamino)cyclohexyl)amino)-8-isopropyl-7-oxo-7,8-dihydropyrido[2,3-d]pyrimidin-6-yl)-2,3,6-trifluorophenyl)-3-methylbutanamide] came in with an IC50 of 3.2 nM.

`CC(C)n1c(=O)c(-c2cc(F)c(NS(=O)(=O)CCC(F)(F)F)c(F)c2F)cc2cnc(NC3CCC(N(C)C)C(F)C3)nc21` (stereo not drawn) [Compound 60, N-(4-(2-((4-(dimethylamino)-3-fluorocyclohexyl)amino)-8-isopropyl-7-oxo-7,8-dihydropyrido[2,3-d]pyrimidin-6-yl)-2,3,6-trifluorophenyl)-3,3,3-trifluoropropane-1-sulfonamide] gave an IC50 of 0.2 nM. Against the preceding molecule, the IC50 is about 16-fold lower.

With `CC(C)n1c(=O)c(-c2cc(F)c(NS(=O)(=O)c3ccccc3Cl)c(F)c2F)cc2cnc(N[C@@H]3CNC[C@@H](F)C3)nc21` [Compound 61, 2-Chloro-N-(2,3,6-trifluoro-4-(2-(((3S,5S)-5-fluoropiperidin-3-yl)amino)-8-isopropyl-7-oxo-7,8-dihydropyrido[2,3-d]pyrimidin-6-yl)phenyl)benzenesulfonamide hydrochloride], the IC50 stood at 0.31 nM.

The molecule `CC(C)n1c(=O)c(-c2cc(F)c(NC(=O)CC3CCC3)c(F)c2F)cc2cnc(N[C@H]3CC[C@H](N(C)C)CC3)nc21` [Compound 62, 2-Cyclobutyl-N-(4-(2-(((1r,4r)-4-(dimethylamino)cyclohexyl)amino)-8-isopropyl-7-oxo-7,8-dihydropyrido[2,3-d]pyrimidin-6-yl)-2,3,6-trifluorophenyl)acetamide] yielded a concentration for half-maximal inhibition (IC50) of 2.2 nM.

Molecule `CC(C)n1c(=O)c(-c2cc(F)c(NC(=O)[C@H]3C[C@H]3F)c(F)c2F)cc2cnc(N[C@H]3CC[C@H](N(C)C)CC3)nc21` [Compound 63, (1R,2R)—N-(4-(2-(((1r,4r)-4-(Dimethylamino)cyclohexyl)amino)-8-isopropyl-7-oxo-7,8-dihydropyrido[2,3-d]pyrimidin-6-yl)-2,3,6-trifluorophenyl)-2-fluorocyclopropane-1-carboxamide hydrochloride] came in with an IC50 of 4.1 nM.

`CC(C)n1c(=O)c(-c2ccc(NS(=O)(=O)Cc3ccccc3)c(F)c2)nc2cnc(N[C@@H]3CNC[C@@](C)(F)C3)nc21` [Compound 64, N-(2-Fluoro-4-(2-(((3S,5S)-5-fluoro-5-methylpiperidin-3-yl)amino)-8-isopropyl-7-oxo-7,8-dihydropteridin-6-yl)phenyl)-1-phenylmethanesulfonamide] had a half-maximal inhibitory concentration (IC50) of 0.21 nM. This IC50 is about 20-fold lower than that of the molecule before.

As to `CC(C)n1c(=O)c(-c2ccc(NS(=O)(=O)Cc3ccccc3)c(F)c2)nc2cnc(N[C@@H]3CNC[C@H](CF)C3)nc21` [Compound 65, N-(2-Fluoro-4-(2-(((3S,5R)-5-(fluoromethyl)piperidin-3-yl)amino)-8-isopropyl-7-oxo-7,8-dihydropteridin-6-yl)phenyl)-1-phenylmethanesulfonamide], the IC50 is 0.24 nM.

`CC(C)n1c(=O)c(-c2ccc(NS(=O)(=O)CCC(C)(F)F)c(F)c2)nc2cnc(N[C@H]3CC[C@H](N(C)C)CC3)nc21` [Compound 66, N-(4-(2-(((1r,4r)-4-(Dimethylamino)cyclohexyl)amino)-8-isopropyl-7-oxo-7,8-dihydropteridin-6-yl)-2-fluorophenyl)-3,3-difluorobutane-1-sulfonamide]: the IC50 was determined as 0.29 nM.

For the molecule `CC(C)n1c(=O)c(-c2ccc(NS(=O)(=O)CCC(F)(F)F)c(F)c2)nc2cnc(N[C@H]3CC[C@H](N(C)C)CC3)nc21` [Compound 67, N-(4-(2-(((1r,4r)-4-(Dimethylamino)cyclohexyl)amino)-8-isopropyl-7-oxo-7,8-dihydropteridin-6-yl)-2-fluorophenyl)-3,3,3-trifluoropropane-1-sulfonamide], the IC50 came out at 0.18 nM.

In the case of `CC(C)n1c(=O)c(-c2ccc(NS(=O)(=O)Cc3ccccc3)c(F)c2)nc2cnc(N[C@H]3CC[C@H](N(C)C)CC3)nc21` [Compound 68, N-(4-(2-(((1r,4r)-4-(Dimethylamino)cyclohexyl)amino)-8-isopropyl-7-oxo-7,8-dihydropteridin-6-yl)-2-fluorophenyl)-1-phenylmethanesulfonamide], the concentration for half-maximal inhibition (IC50) amounted to 0.13 nM.

On to `CCn1c(=O)c(-c2cc(NS(=O)(=O)Cc3ccccc3)nn2C)cc2cnc(N[C@@H]3CNC[C@@H](F)C3)nc21` [Compound 69, N-(5-(8-ethyl-2-(((3S,5S)-5-fluoropiperidin-3-yl)amino)-7-oxo-7,8-dihydropyrido[2,3-d]pyrimidin-6-yl)-1-methyl-1H-pyrazol-3-yl)-1-phenylmethanesulfonamide], for which the IC50 turned out to be 98 nM.

`CC(C)n1c(=O)c(-c2cc(F)c(NS(=O)(=O)CCC(F)(F)F)c(F)c2)cc2cnc(N[C@H]3CC[C@H](N(C)C)CC3)nc21` [Compound 70, N-(4-(2-(((1,4-trans)-4-(Dimethylamino)cyclohexyl)amino)-8-isopropyl-7-oxo-7,8-dihydropyrido[2,3-d]pyrimidin-6-yl)-2,6-difluorophenyl)-3,3,3-trifluoropropane-1-sulfonamide] showed a half-inhibitory concentration (IC50) of 0.26 nM.

Turning to `CC(C)n1c(=O)c(-c2cc(F)c(NS(=O)(=O)CCC(F)(F)F)cc2F)cc2cnc(N[C@H]3CC[C@H](N(C)C)CC3)nc21` [Compound 71, N-(4-(2-(((1,4-trans)-4-(Dimethylamino)cyclohexyl)amino)-8-isopropyl-7-oxo-7,8-dihydropyrido[2,3-d]pyrimidin-6-yl)-2,5-difluorophenyl)-3,3,3-trifluoropropane-1-sulfonamide formate], the IC50 amounted to 0.25 nM.

Molecule `Cc1cc(-c2nc3cnc(N[C@@H]4CNC[C@@H](F)C4)nc3n(C(C)C)c2=O)cc(F)c1NS(=O)(=O)Cc1ccccc1` [Compound 72, N-[2-Fluoro-4-[2-[[(3S,5S)-5-fluoro-3-piperidyl]amino]-8-isopropyl-7-oxo-pteridin-6-yl]-6-methyl-phenyl]-1-phenyl-methanesulfonamide] showed an IC50 of 0.5 nM.

For `CC(C)n1c(=O)c(-c2ccc(NS(=O)(=O)CCC(F)(F)F)c(F)c2)nc2cnc(N[C@@H]3CNC[C@@H](F)C3)nc21` [Compound 73, 3,3,3-Trifluoro-N-[2-fluoro-4-[2-[[(3S,5S)-5-fluoro-3-piperidyl]amino]-8-isopropyl-7-oxo-pteridin-6-yl]phenyl]propane-1-sulfonamide], the IC50 was found to be 0.5 nM. This counts as sub-nanomolar.

As for `CC(C)n1c(=O)c(-c2ccc(NS(=O)(=O)c3ccccc3)c(F)c2)nc2cnc(N[C@@H]3CNC[C@@H](F)C3)nc21` [Compound 74, N-[2-Fluoro-4-[2-[[(3S,5S)-5-fluoro-3-piperidyl]amino]-8-isopropyl-7-oxo-pteridin-6-yl]phenyl]benzenesulfonamide], the IC50 worked out at 0.6 nM.

Consider `CC(C)n1c(=O)c(-c2ccc(NS(=O)(=O)c3ccccc3Cl)c(F)c2)nc2cnc(N[C@@H]3CNC[C@@H](F)C3)nc21` [Compound 75, 2-Chloro-N-[2-fluoro-4-[2-[[(3S,5S)-5-fluoro-3-piperidyl]amino]-8-isopropyl-7-oxo-pteridin-6-yl]phenyl]benzenesulfonamide], for which the IC50 was determined as 0.3 nM. Against the preceding molecule, the IC50 is about 2-fold lower.

Turning to `CC(C)n1c(=O)c(-c2ccc(NS(=O)(=O)CCC(F)(F)F)c(F)c2)nc2cnc(N[C@@H]3CNC[C@H](CF)C3)nc21` [Compound 76, 3,3,3-Trifluoro-N-[2-fluoro-4-[2-[[(3S,5R)-5-(fluoromethyl)-3-piperidyl]amino]-8-isopropyl-7-oxo-pteridin-6-yl]phenyl]propane-1-sulfonamide], the concentration for half-maximal inhibition (IC50) worked out at 0.9 nM. Against the preceding molecule, the IC50 is about 3-fold higher.

The molecule `CC(C)n1c(=O)c(-c2ccc(NS(=O)(=O)CCC(C)(F)F)c(F)c2)nc2cnc(N[C@@H]3CNC[C@H](CF)C3)nc21` [Compound 77, 3,3-Difluoro-N-[2-fluoro-4-[2-[[(3S,5R)-5-(fluoromethyl)-3-piperidyl]amino]-8-isopropyl-7-oxo-pteridin-6-yl]phenyl]butane-1-sulfonamide] had a concentration for half-maximal inhibition (IC50) of 0.8 nM.

In turn, `CC(C)n1c(=O)c(-c2ccc(NS(=O)(=O)CCC(F)F)c(F)c2)nc2cnc(N[C@@H]3CNC[C@H](CF)C3)nc21` [Compound 78, 3,3-Difluoro-N-[2-fluoro-4-[2-[[(3S,5R)-5-(fluoromethyl)-3-piperidyl]amino]-8-isopropyl-7-oxo-pteridin-6-yl]phenyl]propane-1-sulfonamide] had a half-inhibitory concentration (IC50) of 1 nM.

`CCCS(=O)(=O)Nc1ccc(-c2nc3cnc(N[C@@H]4CNC[C@H](CF)C4)nc3n(C(C)C)c2=O)cc1F` [Compound 79, N-[2-Fluoro-4-[2-[[(3S,5R)-5-(fluoromethyl)-3-piperidyl]amino]-8-isopropyl-7-oxo-pteridin-6-yl]phenyl]propane-1-sulfonamide]: the half-maximal inhibitory concentration (IC50) stood at 1.5 nM.

As to `CC(C)n1c(=O)c(-c2ccc(NS(=O)(=O)Cc3ccccc3C#N)c(F)c2)nc2cnc(N[C@@H]3CNC[C@@H](F)C3)nc21` [Compound 80, 1-(2-Cyanophenyl)-N-[2-fluoro-4-[2-[[(3S,5S)-5-fluoro-3-piperidyl]amino]-8-isopropyl-7-oxo-pteridin-6-yl]phenyl]methanesulfonamide], the half-inhibitory concentration (IC50) worked out at 0.2 nM.

Regarding `CC(C)n1c(=O)c(-c2ccc(NS(=O)(=O)Cc3ccc(C#N)cc3)c(F)c2)nc2cnc(N[C@@H]3CNC[C@@H](F)C3)nc21` [Compound 81, 1-(4-Cyanophenyl)-N-[2-fluoro-4-[2-[[(3S,5S)-5-fluoro-3-piperidyl]amino]-8-isopropyl-7-oxo-pteridin-6-yl]phenyl]methanesulfonamide], the half-inhibitory concentration (IC50) is 0.1 nM.
